Assay: log P by HPLC on a reversed-phase column (C18), EEC Directive 79/831 Annex V.A8
Type: physicochemical
Conditions: HCOOH
Method: The stated log P values were determined in accordance with EEC Directive 79/831 Annex V.A8 by HPLC (High Performance Liquid Chromatography) using a reversed-phase column (C18).

Row | Compound | log P (HCOOH)
1 | CNC(=O)c1ccc(-n2nc(C(F)(F)F)c(-c3ccc(Cl)c(Cl)c3)c2N)cc1 [I-A-Q2-194] | I-A-Q2-194: log P (HCOOH): 3.37
2 | Cc1cc(-n2nc(C(F)(F)F)c(-c3ccc(Cl)cc3)c2N)ccc1C(=O)NCC(F)(F)C(F)F [I-A-Q2-302] | I-A-Q2-302: log P (HCOOH): 3.61
3 | CC(C)CC(NC(=O)c1ccc(-n2nc(C(F)(F)F)c(-c3cc(Cl)cc(Cl)c3)c2N)cc1)C(F)(F)F (stereo not drawn) [I-A-Q2-070] | I-A-Q2-070: log P (HCOOH): 5.25
4 | Cc1cc(-n2nc(C)c(-c3ccccc3Cl)c2N)ccc1C(=O)NCC(F)(F)C(F)F [I-A-Q2-333] | I-A-Q2-333: log P (HCOOH): 2.59
5 | Cc1cc(-n2nc(C(F)F)c(-c3ccc(Cl)cc3)c2N)ccc1C(=O)NCc1ccccn1 [I-A-Q2-362] | I-A-Q2-362: log P (HCOOH): 2.27
6 | Cc1cc(-n2nc(C(F)(F)F)c(-c3ccc(Cl)c(F)c3)c2N)ccc1C(=O)NCC(F)(F)C(F)F [I-A-Q2-310] | I-A-Q2-310: log P (HCOOH): 3.70
7 | CC(C)(C)NC(=O)c1ccc(-n2nc(C(F)(F)F)c(-c3cc(Cl)cc(Cl)c3)c2N)cc1 [I-A-Q2-146] | I-A-Q2-146: log P (HCOOH): 4.54
8 | Cc1cc(-n2nc(C(F)(F)F)c(-c3ccc(F)c(Cl)c3)c2N)ccc1C(=O)NCc1ccccn1 [I-A-Q2-352] | I-A-Q2-352: log P (HCOOH): 2.76
9 | Cc1cc(-n2nc(C)c(-c3c(F)cc(F)cc3F)c2N)ccc1C(=O)NCC(F)(F)C(F)F [I-A-Q2-328] | I-A-Q2-328: log P (HCOOH): 2.48
10 | Cc1cc(-n2nc(C(F)(F)F)c(-c3cc(Cl)cc(Cl)c3)c2N)ccc1C(=O)NCCNC(=O)c1ccccn1 [I-A-Q2-036] | I-A-Q2-036: log P (HCOOH): 3.68
11 | CNC(=O)c1ccc(-n2nc(C(F)(F)F)c(-c3cccc(Cl)c3)c2N)cc1 [I-A-Q2-094] | I-A-Q2-094: log P (HCOOH): 2.76
12 | Nc1c(-c2cc(Cl)cc(Cl)c2)c(C(F)(F)F)nn1-c1ccc(C(=O)NCC(F)(F)F)cn1 [I-A-Q2-101] | I-A-Q2-101: log P (HCOOH): 4.71
13 | CC(NC(=O)c1ccc(-n2nc(C(F)(F)F)c(-c3ccccc3Cl)c2N)cc1)C(F)(F)F (stereo not drawn) [I-A-Q2-079] | I-A-Q2-079: log P (HCOOH): 3.37
14 | Cc1cc(-n2nc(C(F)(F)Cl)c(-c3cc(Cl)cc(C(F)(F)F)c3)c2N)ccc1C(=O)NCc1ccccn1 [I-A-Q2-364] | I-A-Q2-364: log P (HCOOH): 3.53
15 | CC(NC(=O)c1ccc(-n2nc(C(F)(F)F)c(-c3cc(F)cc(Cl)c3)c2N)cc1)c1ccccc1 (stereo not drawn) [I-A-Q2-090] | I-A-Q2-090: log P (HCOOH): 4.11
16 | Cc1cc(-n2nc(C(F)(F)Oc3ccccc3Cl)c(-c3cc(Cl)cc(C(F)(F)F)c3)c2N)ccc1C(=O)NCC(F)(F)C(F)F [I-A-Q2-298] | I-A-Q2-298: log P (HCOOH): 4.64
17 | CC(C)NC(=O)c1ccc(-n2nc(C(F)(F)F)c(-c3cccc(F)c3)c2N)cc1 [I-A-Q2-181] | I-A-Q2-181: log P (HCOOH): 2.98
18 | Cc1cc(-n2nc(C(F)(F)F)c(-c3cc(Cl)cc(Cl)c3)c2N)ccc1C(=O)NCc1ncc(F)cc1F [I-A-Q2-278] | I-A-Q2-278: log P (HCOOH): 4.30
19 | COC(CNC(=O)c1ccc(-n2nc(C(F)(F)F)c(-c3cc(Cl)cc(Cl)c3)c2N)cc1C)OC [I-A-Q2-224] | I-A-Q2-224: log P (HCOOH): 3.78
20 | CNC(=O)c1ccc(-n2nc(C(F)(F)F)c(-c3ccccc3Cl)c2N)cc1 [I-A-Q2-082] | I-A-Q2-082: log P (HCOOH): 2.46

Row | Compound | log P (HCOOH)
21 | Cc1cc(-n2nc(C(F)(F)Oc3ccc(Cl)cc3Cl)c(-c3cc(Cl)cc(C(F)(F)F)c3)c2N)ccc1C(=O)NCC(F)(F)C(F)F [I-A-Q2-295] | I-A-Q2-295: log P (HCOOH): 5.27
22 | Nc1c(-c2ccccc2Cl)c(C(F)(F)F)nn1-c1ccc(C(=O)NCc2ncccn2)cc1 [I-A-Q2-080] | I-A-Q2-080: log P (HCOOH): 2.38
23 | Cc1cc(-n2nc(-c3ccccc3)c(-c3ccc(Cl)cc3)c2N)ccc1C(=O)NCc1ccccn1 [I-A-Q2-377] | I-A-Q2-377: log P (HCOOH): 2.80
24 | CC(NC(=O)c1ccc(-n2nc(C(F)(F)F)c(-c3ccc(Cl)c(Cl)c3)c2N)cc1)c1ccccn1 (stereo not drawn) [I-A-Q2-160] | I-A-Q2-160: log P (HCOOH): 3.23
25 | Nc1c(-c2cccc(F)c2)c(C(F)(F)F)nn1-c1ccc(C(=O)NCC(F)(F)F)cc1 [I-A-Q2-183] | I-A-Q2-183: log P (HCOOH): 3.11
26 | Cc1cc(-n2nc(C(F)(F)F)c(-c3cc(Cl)cc(Cl)c3)c2N)ccc1C(=O)NC(C)c1ccc(C(F)(F)F)cn1 (stereo not drawn) [I-A-Q2-240] | I-A-Q2-240: log P (HCOOH): 4.70
27 | COC(C)c1nn(-c2ccc(C(=O)NCC(F)(F)C(F)F)c(C)c2)c(N)c1-c1cc(Cl)cc(C(F)(F)F)c1 (stereo not drawn) [I-A-Q2-291] | I-A-Q2-291: log P (HCOOH): 3.84
28 | Cc1cc(-n2nc(C(F)(F)F)c(-c3cc(Cl)cc(Cl)c3)c2N)ccc1C(=O)NCc1ncccc1C [I-A-Q2-029] | I-A-Q2-029: log P (HCOOH): 3.24
29 | Cc1cc(CNC(=O)c2ccc(-n3nc(C(F)(F)F)c(-c4cc(Cl)cc(Cl)c4)c3N)cc2C)n(C)n1 [I-A-Q2-254] | I-A-Q2-254: log P (HCOOH): 3.58
30 | CC(NC(=O)c1ccc(-n2nc(C(F)(F)F)c(-c3cc(F)c(F)c(F)c3)c2N)cc1)c1ccccn1 (stereo not drawn) [I-A-Q2-196] | I-A-Q2-196: log P (HCOOH): 2.84
31 | Cc1cnc2c(c1)CCCC2NC(=O)c1ccc(-n2nc(C(F)(F)F)c(-c3cc(Cl)cc(Cl)c3)c2N)cc1C (stereo not drawn) [I-A-Q2-051] | I-A-Q2-051: log P (HCOOH): 3.06
32 | Cc1cc(-n2nc(C(F)(F)F)c(-c3cc(Cl)cc(Cl)c3)c2N)ccc1C(=O)N(C)Cc1cccnc1 [I-A-Q2-209] | I-A-Q2-209: log P (HCOOH): 3.02
33 | Cc1cc(-n2nc(C(F)(F)F)c(-c3cc(Cl)cc(Cl)c3)c2N)ccc1C(=O)NCc1ccncc1 [I-A-Q2-212] | I-A-Q2-212: log P (HCOOH): 2.27
34 | Nc1c(-c2cccc(Br)c2)c(C(F)(F)F)nn1-c1ccc(C(=O)NC2CC2)cc1 [I-A-Q2-173] | I-A-Q2-173: log P (HCOOH): 3.11
35 | Cc1cc(-n2nc(C(F)(F)F)c(-c3cc(Cl)cc(Cl)c3)c2N)ccc1C(=O)NCC(F)(F)C(F)F [I-A-Q2-035] | I-A-Q2-035: log P (HCOOH): 4.23
36 | Cc1cc(-n2nc(C(F)(F)F)c(-c3ccccc3Br)c2N)ccc1C(=O)NCC1CC1 [I-A-Q2-422] | I-A-Q2-422: log P (HCOOH): 3.41
37 | Cc1cc(-n2nc(C(F)(F)F)c(-c3cc(Cl)cc(Cl)c3)c2N)ccc1C(=O)NC(C)C(F)(F)F (stereo not drawn) [I-A-Q2-011] | I-A-Q2-011: log P (HCOOH): 4.54
38 | COc1ccc(CNC(=O)c2ccc(-n3nc(C(F)(F)F)c(-c4cc(Cl)cc(Cl)c4)c3N)cc2C)nc1 [I-A-Q2-032] | I-A-Q2-032: log P (HCOOH): 3.63
39 | Cc1cc(-n2nc(C(F)(F)F)c(-c3cc(Cl)cc(Cl)c3)c2N)ccc1C(=O)NCCc1ncc(C(F)(F)F)cc1Cl [I-A-Q2-232] | I-A-Q2-232: log P (HCOOH): 4.95
40 | CSc1c(-c2cc(Cl)cc(Cl)c2)c(C(F)(F)F)nn1-c1ccc(C(=O)NCc2ccccn2)c(C)c1 [I-A-Q2-028] | I-A-Q2-028: log P (HCOOH): 4.35

Same assay, conditions: HCOOH; Table 4, compounds of formula I-A-Q4

Row | Compound | log P (HCOOH)
41 | COC(=O)c1ccc(-n2nc(C(F)(F)F)c(-c3cc(Cl)cc(Cl)c3)c2N)cc1N(C)C [I-A-Q4-119] | I-A-Q4-119: log P (HCOOH): 4.71
42 | CN(C)c1cc(-n2nc(C(F)(F)F)c(-c3cc(Cl)cc(Cl)c3)c2N)ccc1C(=O)O [I-A-Q4-121] | I-A-Q4-121: log P (HCOOH): 3.07
43 | Nc1c(-c2cccc(Cl)c2)c(C(F)(F)F)nn1-c1ccc(C(=O)O)cc1 [I-A-Q4-096] | I-A-Q4-096: log P (HCOOH): 3.20
44 | COC(=O)c1cnc(-n2nc(C(F)(F)F)c(-c3cc(Cl)cc(Cl)c3)c2N)nc1C(F)(F)F [I-A-Q4-063] | I-A-Q4-063: log P (HCOOH): 4.66
45 | Nc1c(-c2cccc(Br)c2)c(C(F)(F)F)nn1-c1ccc(Cl)cn1 [I-A-Q4-052] | I-A-Q4-052: log P (HCOOH): 5.02
46 | Nc1c(-c2cc(Cl)cc(Cl)c2)c(C(F)(F)F)nn1-c1ccc(S(=O)(=O)NC2CC2)c(Cl)c1 [I-A-Q4-110] | I-A-Q4-110: log P (HCOOH): 4.49
47 | Cc1nn(-c2ccc(Cl)cn2)c(N)c1-c1cccc(Cl)c1 [I-A-Q4-034] | I-A-Q4-034: log P (HCOOH): 4.40
48 | CCOC(=O)c1ccc(-n2nc(C(F)(F)F)c(-c3cc(Cl)cc(Cl)c3)c2N)cc1 [I-A-Q4-086] | I-A-Q4-086: log P (HCOOH): 4.93
49 | Nc1c(-c2ccc(Br)cc2)c(C(F)(F)F)nn1-c1ccc(Cl)cn1 [I-A-Q4-042] | I-A-Q4-042: log P (HCOOH): 5.22
50 | CSc1c(-c2ccc(Cl)c(Cl)c2)c(C(F)(F)F)nn1-c1ncc(Cl)cn1 [I-A-Q4-020] | I-A-Q4-020: log P (HCOOH): 5.22
51 | Nc1c(-c2cc(Cl)cc(Cl)c2)c(C(F)(F)F)nn1-c1ccc(F)c(C(F)(F)F)c1 [I-A-Q4-105] | I-A-Q4-105: log P (HCOOH): 5.25

Same assay, conditions: HPLC, reversed-phase C18, mobile phase with formic acid

Row | Compound | log P (HCOOH)
52 | N#Cc1cc(-n2nc(C(F)(F)F)c(-c3ccc(I)cc3)c2N)ccc1-n1cncn1 [I-A-Q1-043] | I-A-Q1-043: log P (HCOOH): 3.61
53 | N#Cc1cc(-n2nc(C(F)(F)F)c(-c3ccc(Cl)c(Cl)c3)c2N)ccc1-n1cncn1 [I-A-Q1-031] | I-A-Q1-031: log P (HCOOH): 3.60
54 | N#Cc1cc(-n2nc(C(F)(F)F)c(-c3cc(Cl)cc(Cl)c3)c2N)ccc1-n1nc[nH]c1=O [I-A-Q1-026] | I-A-Q1-026: log P (HCOOH): 3.37
55 | N#Cc1cc(-n2nc(C(F)(F)F)c(-c3cc(Cl)cc(Cl)c3)c2N)ccc1-n1cnc2ccccc21 [I-A-Q1-081] | I-A-Q1-081: log P (HCOOH): 4.28
56 | N#Cc1cc(-n2nc(C(F)(F)F)c(-c3ccc(Br)cc3)c2N)ccc1-n1cncn1 [I-A-Q1-040] | I-A-Q1-040: log P (HCOOH): 3.44
57 | N#Cc1cc(-n2nc(C(F)F)c(-c3ccc(Cl)cc3)c2N)ccc1-n1cncn1 [I-A-Q1-030] | I-A-Q1-030: log P (HCOOH): 2.92
58 | N#Cc1cc(-n2nc(C(F)(F)F)c(-c3cc(Cl)cc(Cl)c3)c2N)ccc1-n1nc(C(F)F)cc1C(F)F [I-A-Q1-080] | I-A-Q1-080: log P (HCOOH): 4.64
59 | N#Cc1cc(-n2nc(C(F)(F)Oc3ccccc3Cl)c(-c3cc(Cl)cc(C(F)(F)F)c3)c2N)ccc1-n1cncn1 [I-A-Q1-073] | I-A-Q1-073: log P (HCOOH): 4.51

Same assay, conditions: HPLC, reversed-phase C18, mobile phase with formic acid; read-out: log P (HCOOH)

Row | Compound | chromatographic logP
60 | N#Cc1cc(N)ccc1-n1cncn1 [5-Amino-2-[1,2,4]triazol-1-ylbenzonitrile] | 1.01
